# Patent US12600714B2, “Substituted pyrazinecarboxamide compounds for treating diseases related to EGFR mutation” (WIGEN BIOMEDICINE TECHNOLOGY (SHANGHAI) CO., LTD., priority 2020, dated 2026)
# How the values were obtained:
# [1] = biological target: Ba/F3 (EGFR^del19/T790M/C797S) triple-mutant cells (Homo sapiens, UniProt P00533, T790M/C797S, cells depend on it, form not given); test: Antiproliferative activity against Ba/F3 (EGFR del19/T790M/C797S) triple-mutant cells, Cell Titer Glow; format: cell-based; details: three days after addition of compounds; read-out: Antiproliferative activity BaF3(EGFR^del19/T790M/C797S) IC50
# Chain of Ba/F3 (EGFR^del19/T790M/C797S) triple-mutant cells (P00533 with tags, fused parts or gaps DEL746-750/T790M/C797S, form open): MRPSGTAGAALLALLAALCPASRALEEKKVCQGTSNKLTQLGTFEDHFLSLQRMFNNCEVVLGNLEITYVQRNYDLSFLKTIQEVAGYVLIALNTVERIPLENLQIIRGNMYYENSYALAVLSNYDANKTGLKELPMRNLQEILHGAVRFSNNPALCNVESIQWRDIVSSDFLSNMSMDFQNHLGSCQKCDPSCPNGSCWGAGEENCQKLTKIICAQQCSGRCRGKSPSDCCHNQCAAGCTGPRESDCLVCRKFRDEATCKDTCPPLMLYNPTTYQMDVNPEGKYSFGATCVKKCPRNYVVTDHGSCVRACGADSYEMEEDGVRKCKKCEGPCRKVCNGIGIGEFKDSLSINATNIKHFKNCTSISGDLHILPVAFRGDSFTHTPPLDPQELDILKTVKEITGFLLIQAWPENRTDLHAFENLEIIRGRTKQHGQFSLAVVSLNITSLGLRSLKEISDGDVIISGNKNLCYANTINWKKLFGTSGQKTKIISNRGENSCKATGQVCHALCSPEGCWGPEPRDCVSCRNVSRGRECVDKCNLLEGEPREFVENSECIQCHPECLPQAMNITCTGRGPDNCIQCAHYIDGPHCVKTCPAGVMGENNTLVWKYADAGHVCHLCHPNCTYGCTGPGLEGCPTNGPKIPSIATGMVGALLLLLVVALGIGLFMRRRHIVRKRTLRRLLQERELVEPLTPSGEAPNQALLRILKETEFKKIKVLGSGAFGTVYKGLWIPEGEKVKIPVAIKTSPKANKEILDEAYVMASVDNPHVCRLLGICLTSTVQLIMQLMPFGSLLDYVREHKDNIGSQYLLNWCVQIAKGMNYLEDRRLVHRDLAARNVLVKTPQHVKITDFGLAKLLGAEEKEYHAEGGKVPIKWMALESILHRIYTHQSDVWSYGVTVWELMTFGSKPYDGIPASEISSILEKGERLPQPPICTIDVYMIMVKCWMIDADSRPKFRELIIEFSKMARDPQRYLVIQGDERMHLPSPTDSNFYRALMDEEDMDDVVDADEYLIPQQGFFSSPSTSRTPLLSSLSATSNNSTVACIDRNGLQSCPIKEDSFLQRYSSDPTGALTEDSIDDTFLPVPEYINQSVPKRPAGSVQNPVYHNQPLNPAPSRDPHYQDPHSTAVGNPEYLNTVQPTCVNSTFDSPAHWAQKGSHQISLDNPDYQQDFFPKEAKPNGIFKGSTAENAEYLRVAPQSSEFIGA
# Description: (§1) Antiproliferative Activity of the Compounds Disclosed Herein Against Ba/F3 (EGFR^del19/T790M/C797S) Triple-Mutant Cells and A431 (EGFR WT) Cells
# (§2) • 3000 Ba/F3 cells carrying EGFR (del19/T790M/C797S) or 2000 A431 cells were seeded in a 384-well plate. After one day, serially diluted compounds were added (up to 500 nM for Ba/F3 cells and up to 10 μM for A431 cells). Three days after the addition of the compounds, Cell Titer Glow was added to evaluate cell growth and the percentage cell growth inhibition by the compounds and the IC50 values were calculated.
# [2] = test system: A431 (EGFR WT) cells; test: Antiproliferative activity against A431 (EGFR WT) cells, Cell Titer Glow; format: cell-based; details: Homo sapiens, A-431, 72 h; three days after addition of compounds; read-out: Antiproliferative activity A431 wild-type (WT) IC50
# Description: as §1, §2
# [3] = test system: EGFR (del19/T790M/C797S); test: HTRF inhibitory activity assay against EGFR (del19/T790M/C797S) enzyme; format: biochemical
# Summary of the method: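 Wild-type or mutant EGFR preincubated with serially diluted compound 10 min at 28 °C, then reacted 40 min at room temperature with biotinylated TK substrate and ATP. Phosphorylation detected by HTRF (Eu-cryptate anti-TK antibody, streptavidin-XL665, 60 min), 665/615 nm ratio; % inhibition and IC50 vs control.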
GI50 [1] [nM],IC50 [2] [nM],SMILES,EGFR (del19/T790M/C797S) inhibition (%) (0.3 nM compound) [3]
> 100,2100,Cc1cnccc1-c1nc(C(N)=O)c(Nc2ccc(N3CCC(N4CCN(C)CC4)CC3)cc2)nc1NC1CCOCC1 [compound 74],
357,1500,CN1CCN(C2CCN(c3ccc(Nc4nc(NC5CCOCC5)c(-c5ccccc5N(C)C)nc4C(N)=O)cc3)CC2)CC1 [compound 85],
21,1700,CN1CCN(C2CCN(c3ccc(Nc4nc(NC5CCOCC5)c(-c5cccc(N(C)C)c5)nc4C(N)=O)cc3)CC2)CC1 [compound 86],
52,280,CN1CCN(C2CCN(c3ccc(Nc4nc(NC5CCOCC5)c(-c5cncs5)nc4C(N)=O)cc3)CC2)CC1 [compound 88],
214,2000,CO[C@H]1CC[C@H](Nc2nc(Nc3ccc(N4CCC(N5CCN(C)CC5)CC4)cc3)c(C(N)=O)nc2-c2ccccc2)CC1 [compound 115],
> 100,> 10000,CN1CCN(C2CCN(c3ccc(Nc4nc(O[C@@H]5CCN(CCO)C5)c(-c5ccccc5)nc4C(N)=O)cc3)CC2)CC1 [compound 131],
40,340,"CN1CCN(C2CCN(c3ccc(Nc4nc(NC5CCC(O)C5)c(-c5ccccc5)nc4C(N)=O)cc3)CC2)CC1 (stereo not shown) [compound 135, 5-((3-hydroxycyclopentyl)amino)-3-((4-(4-(4-methylpiperazin-1-yl)piperidin-1-yl)phenyl)amino)-6-phenylpyrazine-2-carboxamide]",
27,230,CN1CCN(C2CCN(c3ccc(Nc4nc(N[C@@H]5CCC[C@H](O)C5)c(-c5ccccc5)nc4C(N)=O)cc3)CC2)CC1 [compound 141],
68,1700,Cc1cc(Nc2nc(NC3CCOCC3)c(-c3ccncc3)nc2C(N)=O)ccc1N1CCN(C)CC1 [compound 148],
54,1200,CCc1cc(Nc2nc(NC3CCOCC3)c(-c3ccncc3)nc2C(N)=O)ccc1N1CCC(N2CCN(C)CC2)CC1 [compound 161],
51,1000,CN1CCN(c2ccc(Nc3nc(NC4CCOCC4)c(-c4cc[nH]n4)nc3C(N)=O)cc2)CC1 [compound 174],
18,980,CCc1cc(Nc2nc(NC3CCOCC3)c(-c3cc[nH]n3)nc2C(N)=O)ccc1N1CCC(N2CCN(C)CC2)CC1 [compound 184],
226,> 10000,Cc1cc(Nc2nc(NC3CCOCC3)c(-c3ccccn3)nc2C(N)=O)ccc1N1CCC(N2CCN(C)CC2)CC1 [compound 213],
57,190,COc1cc(Nc2nc(NC3CCOCC3)c(-c3cc[nH]n3)nc2C(N)=O)ccc1N1CCC(N2CCN(C)CC2)CC1 [compound 417],
32,3700,CC(C)c1cc(Nc2nc(NC3CCOCC3)c(-c3cc[nH]n3)nc2C(N)=O)ccc1N1CCC(N2CCN(C)CC2)CC1 [compound 420],
36,530,CN1CCN(C2CCN(c3ccc(Nc4nc(NC5CCOCC5)c(-c5cc[nH]n5)nc4C(N)=O)cc3C3CC3)CC2)CC1 [compound 421],
98,330,COc1cc(Nc2nc(NC3CC4(COC4)C3)c(-c3cc[nH]n3)nc2C(N)=O)ccc1N1CCC(N2CCN(C)CC2)CC1 [compound 504],
57,560,Cc1cc(Nc2nc(NC3CCOCC3)c(-c3cccc4[nH]ccc34)nc2C(N)=O)ccc1N1CCC(N2CCN(C)CC2)CC1 [compound 513],
48,250,Cc1cc(Nc2nc(NC3CCOCC3)c(-c3ccnc4[nH]ccc34)nc2C(N)=O)ccc1N1CCC(N2CCN(C)CC2)CC1 [compound 514],
42,520,CCc1cc(Nc2nc(NC3CCOCC3)c(-c3cccc4[nH]ccc34)nc2C(N)=O)ccc1N1CCC(N2CCN(C)CC2)CC1 [compound 515],
42,350,CCc1cc(Nc2nc(NC3CCOCC3)c(-c3ccnc4[nH]ccc34)nc2C(N)=O)ccc1N1CCC(N2CCN(C)CC2)CC1 [compound 516],
35,290,CN1CCN(C2CCN(c3ccc(Nc4nc(NC5CCOCC5)c(-c5cncc6[nH]ccc56)nc4C(N)=O)cc3)CC2)CC1 [compound 538],
,,CN1CCN(C2CCN(c3ccc(Nc4nc(N[C@H]5C[C@H](O)C5)c(-c5cc[nH]n5)nc4C(N)=O)cc3F)CC2)CC1 [compound 621],+++ (+++ indicates an inhibition greater than 50%.)

GI50 [1] [nM],IC50 [2] [nM],SMILES,EGFR (del19/T790M/C797S) inhibition (%) (0.3 nM compound) [3]
,,CC(C)Nc1nc(Nc2ccc(N3CCC(N4CCN(C)CC4)CC3)c(F)c2)c(C(N)=O)nc1-c1cc[nH]n1 [compound 622],+++ (+++ indicates an inhibition greater than 50%.)
,,CN1CCN(C2CCN(c3ccc(Nc4nc(NC5CCC(O)C5)c(-c5cc[nH]n5)nc4C(N)=O)cc3F)CC2)CC1 (stereo not shown) [compound 623],+++ (+++ indicates an inhibition greater than 50%.)
,,CN1CCN(C2CCN(c3ccc(Nc4nc(NC5CCCC5O)c(-c5cc[nH]n5)nc4C(N)=O)cc3F)CC2)CC1 (stereo not shown) [compound 624],++ (++ indicates an inhibition from 20% to 50%)
,,CN1CCN(C2CCN(c3ccc(Nc4nc(NC5CC5)c(-c5cc[nH]n5)nc4C(N)=O)cc3)CC2)CC1 [compound 625],+++ (+++ indicates an inhibition greater than 50%.)
,,CN1CCN(C2CCN(c3ccc(Nc4nc(NC5CC5)c(-c5cc[nH]n5)nc4C(N)=O)cc3F)CC2)CC1 [compound 626],+++ (+++ indicates an inhibition greater than 50%.)
,,CN1CCN(C2CCN(c3ccc(Nc4nc(NC5CC6(COC6)C5)c(-c5cc[nH]n5)nc4C(N)=O)cc3)CC2)CC1 [compound 627],++ (++ indicates an inhibition from 20% to 50%)
,,CN1CCN(C2CCN(c3ccc(Nc4nc(NC5CC6(COC6)C5)c(-c5cc[nH]n5)nc4C(N)=O)cc3F)CC2)CC1 [compound 628],++ (++ indicates an inhibition from 20% to 50%)
,,CN1CCN(C2CCN(c3ccc(Nc4nc(NC5CC6(COC6)C5)c(-c5ccnc6[nH]ccc56)nc4C(N)=O)cc3)CC2)CC1 [compound 629],+++ (+++ indicates an inhibition greater than 50%.)
,,CN1CCN(C2CCN(c3ccc(Nc4nc(NC5CC6(COC6)C5)c(-c5ccnc6[nH]ccc56)nc4C(N)=O)cc3F)CC2)CC1 [compound 630],+++ (+++ indicates an inhibition greater than 50%.)
,,CN1CCN(C2CCN(c3ccc(Nc4nc(NC5CC5)c(-c5ccncc5)nc4C(N)=O)cc3)CC2)CC1 [compound 631],+++ (+++ indicates an inhibition greater than 50%.)
,,CN1CCN(C2CCN(c3ccc(Nc4nc(NC5CC5)c(-c5ccncc5)nc4C(N)=O)cc3F)CC2)CC1 [compound 632],+++ (+++ indicates an inhibition greater than 50%.)
,,CN1CCN(C2CCN(c3ccc(Nc4nc(NC5CC6(COC6)C5)c(-c5ccncc5)nc4C(N)=O)cc3)CC2)CC1 [compound 633],+++ (+++ indicates an inhibition greater than 50%.)
,,CN1CCN(C2CCN(c3ccc(Nc4nc(NC5CC6(COC6)C5)c(-c5ccncc5)nc4C(N)=O)cc3F)CC2)CC1 [compound 634],+++ (+++ indicates an inhibition greater than 50%.)
,,CC(C)Nc1nc(Nc2ccc(N3CCC(N4CCN(C)CC4)CC3)c(F)c2)c(C(N)=O)nc1-c1ccncc1 [compound 635],+++ (+++ indicates an inhibition greater than 50%.)
,,CN1CCN(C2CCN(c3ccc(Nc4nc(NC5CCC5)c(-c5ccncc5)nc4C(N)=O)cc3)CC2)CC1 [compound 638],+++ (+++ indicates an inhibition greater than 50%.)
,,CN1CCN(C2CCN(c3ccc(Nc4nc(NC5CCC5)c(-c5ccncc5)nc4C(N)=O)cc3F)CC2)CC1 [compound 639],+++ (+++ indicates an inhibition greater than 50%.)
,,CN1CCN(C2CCN(c3ccc(Nc4nc(NC5CCCC5)c(-c5ccncc5)nc4C(N)=O)cc3)CC2)CC1 [compound 640],+++ (+++ indicates an inhibition greater than 50%.)
,,CN1CCN(C2CCN(c3ccc(Nc4nc(NC5CCCC5)c(-c5ccncc5)nc4C(N)=O)cc3F)CC2)CC1 [compound 641],+++ (+++ indicates an inhibition greater than 50%.)
,,CN1CCN(C2CCN(c3ccc(Nc4nc(N[C@@H]5CCOC5)c(-c5ccncc5)nc4C(N)=O)cc3)CC2)CC1 [compound 642],+++ (+++ indicates an inhibition greater than 50%.)
,,CN1CCN(C2CCN(c3ccc(Nc4nc(N[C@@H]5CCOC5)c(-c5ccncc5)nc4C(N)=O)cc3F)CC2)CC1 [compound 643],+++ (+++ indicates an inhibition greater than 50%.)
,,CN1CCN(C2CCN(c3ccc(Nc4nc(N[C@H]5CCOC5)c(-c5ccncc5)nc4C(N)=O)cc3)CC2)CC1 [compound 644],+++ (+++ indicates an inhibition greater than 50%.)
,,CN1CCN(C2CCN(c3ccc(Nc4nc(N[C@H]5CCOC5)c(-c5ccncc5)nc4C(N)=O)cc3F)CC2)CC1 [compound 645],+++ (+++ indicates an inhibition greater than 50%.)
